The values below come from patent US8518492B2, “Composition, method for manufacturing thin film, and method for manufacturing light-emitting element” (Semiconductor Energy Laboratory Co., Ltd., priority 2008, dated 2013).

Data set [1] can be described thus: Solubility test of anthracene derivatives in solvents. Conditions: for solubility at 10 min: organic solvent or mixture, thermodynamic from solid, ultrasonic waves 10 minutes; for solubility in a solvent (summary in words): solubility test at 10 g/L, six solvents. The data set is classed as physicochemical. As for the experimental part: As comparative examples, compositions were produced by dissolving samples 1-1 to 1-4 in solvents. As manufacturing examples 1, compositions were produced by dissolving samples 1-5 to 1-14 in solvents. The solubility test was performed on the solvents of the anthracene derivatives of the samples […]. The following six solvents were used: diethyl ether, toluene, ethyl acetate, anisole, acetone, and 1,4-dioxane.
0.01 g of each of the anthracene derivatives of the samples 1-1 to 1-14 was measured and put in a sample bottle, 1 mL of a solvent was added in the sample bottle (the solution concentration was 10 g/L), and ultrasonic waves were applied thereto for 10 minutes.

Data set [2] can be described thus: Film quality test of spin-coated thin films. The data set is classed as physicochemical. Set-up: key to Film Quality Test, Solvent Toluene / Film Quality Test, Solvent Ethyl acetate / Film Quality Test, Solvent Anisole / Film Quality Test, Solvent dioxane: ◯: a circle is marked in the case of a transparent film where crystallization or white turbidity is not seen; X: a cross is marked in the case of a film where crystallization or white turbidity is seen. As to conditions: for Film Quality Test, Solvent Anisole: 10 g/L in anisole; for Film Quality Test, Solvent Anisole / Film Quality Test, Solvent dioxane / Film Quality Test, Solvent Ethyl acetate / Film Quality Test, Solvent Toluene: spin coated on glass substrate at 1000 rpm (60 seconds); for Film Quality Test, Solvent dioxane: 10 g/L in dioxane; for Film Quality Test, Solvent Ethyl acetate: 10 g/L in ethyl acetate; for Film Quality Test, Solvent Toluene: 10 g/L in toluene. As for the experimental part:
A composition of each of the samples was adjusted at a concentration of 10 g/L which is the same as that of the solubility test and was deposited over a glass substrate with a size of 5 inches at 1000 rpm (60 seconds) with a spin coater.

[3] abbreviates: 0.01 g in 1 mL 1,4-dioxane (10 g/L), read-out: Solubility Test, Solvent dioxane.
Setting [4] is: 0.01 g in 1 mL acetone (10 g/L), read-out: Solubility Test, Solvent acetone.
[5] abbreviates: 0.01 g in 1 mL anisole (10 g/L), read-out: Solubility Test, Solvent Anisole.
The mark [6] stands for this setting: 0.01 g in 1 mL diethyl ether (10 g/L), read-out: Solubility Test, Solvent Diethyl ether.
Setting [7] is: 0.01 g in 1 mL ethyl acetate (10 g/L), read-out: Solubility Test, Solvent Ethyl acetate.
The mark [8] stands for this setting: 0.01 g in 1 mL toluene (10 g/L), read-out: Solubility Test, Solvent Toluene.

Molecules are shown by their SMILES. Read-outs that look alike come from different tables or passages of the source.

Broadly, the solubility is how much of the substance goes into solution per volume. As for `c1ccc(-c2c3ccccc3c(-c3ccccc3)c3ccccc23)cc1` [Sample 1-1, 9,10-diphenylanthracene, reference compound], the solubility at 10 min was less than 10000 µg/mL in data set [1] (setting [3]); less than 10000 µg/mL in data set [1] (setting [4]); greater than 10000 µg/mL in data set [1] (setting [5]); less than 10000 µg/mL in data set [1] (setting [6]); less than 10000 µg/mL in data set [1] (setting [7]); greater than 10000 µg/mL in data set [1] (setting [8]). The “solubility in a solvent (summary in words)” value (from here on “solubility in a solvent”) in data set [1] is “high solubility”. In data set [2], the “Film Quality Test, Solvent Anisole” value was “X”. In addition, the “Film Quality Test, Solvent dioxane” value in data set [2] is given as “X”. For the same compound, in data set [2], the “Film Quality Test, Solvent Ethyl acetate” value is reported as “X”. Moreover, the “Film Quality Test, Solvent Toluene” value in data set [2] is on record as “X”. In addition, the “film quality (summary in words)” value in data set [2] (film quality test, spin coated from 10 g/L composition) is “crystallized film with a bad quality”.
With `c1ccc2c(-c3ccc(-n4c5ccccc5c5ccccc54)cc3)c3ccccc3c(-c3ccc(-n4c5ccccc5c5ccccc54)cc3)c2c1` [Sample 1-2, 9,10-bis(4-(N-carbazolyl)phenyl)anthracene, reference compound], the solubility at 10 min in data set [1] (setting [3]), in data set [1] (setting [4]), in data set [1] (setting [5]), in data set [1] (setting [6]), in data set [1] (setting [7]) and in data set [1] (setting [8]) was less than 10000 µg/mL throughout. Moreover, the “solubility in a solvent” value in data set [1] is “low solubility”.
For the compound `c1ccc(-c2c3ccccc3c(-c3ccc(-n4c5ccccc5c5cc(-c6ccc7c(c6)c6ccccc6n7-c6ccccc6)ccc54)cc3)c3ccccc23)cc1` [Sample 1-3, 9-phenyl-9′-[4-(10-phenyl-9-anthryl)phenyl]-3,3′-bi(9H-carbazole), reference compound], the solubility at 10 min in data set [1] (setting [3]), in data set [1] (setting [4]), in data set [1] (setting [5]), in data set [1] (setting [6]), in data set [1] (setting [7]) and in data set [1] (setting [8]) was less than 10000 µg/mL each time. The “solubility in a solvent” value in data set [1] is reported as “low solubility”.
Take `CC(C)(C)c1ccc2c(-c3ccc(-c4ccc5c(c4)c4ccccc4n5-c4ccccc4)cc3)c3ccccc3c(-c3ccc(-c4ccc5c(c4)c4ccccc4n5-c4ccccc4)cc3)c2c1` [Sample 1-4, 3,3′-(2-tert-buthylanthracene-9,10′-diyldi-4,1-phenylene)bis(9-phenyl-9H-carbazole), reference compound]: the “solubility in a solvent” value in data set [1] is given as “low solubility”.
For the compound `c1ccc(-c2c3ccccc3c(-c3ccc(-n4c5ccccc5c5ccccc54)cc3)c3ccccc23)cc1` [Sample 1-5, 9-[4-(N-carbazolyl)]phenyl-10-phenylanthracene], in data set [2], the “Film Quality Test, Solvent Anisole” value is recorded as “◯”; the “Film Quality Test, Solvent dioxane” value was “X”; the “Film Quality Test, Solvent Ethyl acetate” value is “X”; the “Film Quality Test, Solvent Toluene” value is recorded as “◯”.
For the compound `c1ccc(-c2c3ccccc3c(-c3ccc(-c4ccc5c(c4)c4ccccc4n5-c4ccccc4)cc3)c3ccccc23)cc1` [Sample 1-6, 9-phenyl-3-[4-(10-phenyl-9-anthryl)phenyl]-9H-carbazol], the solubility at 10 min is greater than 10000 µg/mL in data set [1] (setting [3]); less than 10000 µg/mL in data set [1] (setting [4]); greater than 10000 µg/mL in data set [1] (setting [5]); less than 10000 µg/mL in data set [1] (setting [6]); less than 10000 µg/mL in data set [1] (setting [7]); greater than 10000 µg/mL in data set [1] (setting [8]). Moreover, in data set [2], the “Film Quality Test, Solvent Anisole” value was “◯”. Moreover, the “Film Quality Test, Solvent dioxane” value in data set [2] is “X”. The “Film Quality Test, Solvent Ethyl acetate” value in data set [2] is on record as “X”. Moreover, the “Film Quality Test, Solvent Toluene” value in data set [2] is “◯”.
As for `c1ccc(-c2c3ccccc3c(-c3cccc(-n4c5ccccc5c5ccccc54)c3)c3ccccc23)cc1` [Sample 1-7, 9-[3-(10-phenyl-9-anthryl)phenyl]-9H-carbazole], the solubility at 10 min in data set [1] (setting [3]) was greater than 10000 µg/mL; in data set [1] (setting [4]), less than 10000 µg/mL; in data set [1] (setting [5]), greater than 10000 µg/mL; in data set [1] (setting [6]), less than 10000 µg/mL; in data set [1] (setting [7]), less than 10000 µg/mL; in data set [1] (setting [8]), greater than 10000 µg/mL. Further, the “Film Quality Test, Solvent Anisole” value in data set [2] is “◯”. Besides, in data set [2], the “Film Quality Test, Solvent dioxane” value was “◯”. The “Film Quality Test, Solvent Ethyl acetate” value in data set [2] is reported as “X”. Moreover, in data set [2], the “Film Quality Test, Solvent Toluene” value was “◯”.
As to `CC(C)(C)c1ccc(-c2c3ccccc3c(-c3ccc(-n4c5ccccc5c5ccccc54)cc3)c3ccccc23)cc1` [Sample 1-8, 9-(4-tert-butylphenyl)-10-[4-(carbazol-9-yl)]phenylanthracene], in data set [2], the “Film Quality Test, Solvent Anisole” value is listed as “◯”; the “Film Quality Test, Solvent dioxane” value is on record as “X”; the “Film Quality Test, Solvent Ethyl acetate” value was “X”; the “Film Quality Test, Solvent Toluene” value is “◯”.
On to `c1ccc2cc(-c3c4ccccc4c(-c4ccc(-n5c6ccccc6c6ccccc65)cc4)c4ccccc34)ccc2c1` [Sample 1-9, 9-[4-(carbazol-9-yl)phenyl]-10-(2-naphthyl)anthracene], for which the solubility at 10 min in data set [1] (setting [3]) is greater than 10000 µg/mL; in data set [1] (setting [4]), less than 10000 µg/mL; in data set [1] (setting [5]), greater than 10000 µg/mL; in data set [1] (setting [6]), less than 10000 µg/mL; in data set [1] (setting [7]) it was less than 10000 µg/mL; in data set [1] (setting [8]) it was greater than 10000 µg/mL. For the same compound, the “Film Quality Test, Solvent Anisole” value in data set [2] is recorded as “◯”. Besides, the “Film Quality Test, Solvent dioxane” value in data set [2] was “X”. In addition, in data set [2], the “Film Quality Test, Solvent Ethyl acetate” value was “X”. Moreover, in data set [2], the “Film Quality Test, Solvent Toluene” value is “◯”.
Turning to `c1ccc(-c2ccc3c(c2)c2cc(-c4ccccc4)ccc2n3-c2ccc(-c3c4ccccc4c(-c4ccccc4)c4ccccc34)cc2)cc1` [Sample 1-10, 3,6-diphenyl-9-[4-(10-phenyl-9-antryl)phenyl]-9H-carbazole], in data set [2], the “Film Quality Test, Solvent Anisole” value is given as “◯”; the “Film Quality Test, Solvent dioxane” value was “X”; the “Film Quality Test, Solvent Ethyl acetate” value is recorded as “X”; the “Film Quality Test, Solvent Toluene” value is given as “◯”.
Regarding `c1ccc(-c2c3ccccc3c(-c3ccccc3)c3cc(-c4ccc(-n5c6ccccc6c6ccccc65)cc4)ccc23)cc1` [Sample 1-11, 9-[4-(9,10-diphenyl-2-anthryl)phenyl]-9H-carbazole], the solubility at 10 min was greater than 10000 µg/mL in data set [1] (setting [3]); less than 10000 µg/mL in data set [1] (setting [4]); greater than 10000 µg/mL in data set [1] (setting [5]); less than 10000 µg/mL in data set [1] (setting [7]); greater than 10000 µg/mL in data set [1] (setting [8]). Moreover, the “Film Quality Test, Solvent Anisole” value in data set [2] was “◯”. Also, in data set [2], the “Film Quality Test, Solvent dioxane” value was “X”. The “Film Quality Test, Solvent Ethyl acetate” value in data set [2] is “X”. In addition, the “Film Quality Test, Solvent Toluene” value in data set [2] is given as “◯”.
As for `c1ccc(-c2c3ccccc3c(-c3ccccc3)c3cc(-n4c5ccccc5c5ccccc54)ccc23)cc1` [Sample 1-12, 9-(9,10-diphenyl-2-anthryl)-9H-carbazole], the solubility at 10 min in data set [1] (setting [3]) was greater than 10000 µg/mL; in data set [1] (setting [4]) it was less than 10000 µg/mL; in data set [1] (setting [5]), greater than 10000 µg/mL; in data set [1] (setting [6]) it was greater than 10000 µg/mL; in data set [1] (setting [7]), greater than 10000 µg/mL; in data set [1] (setting [8]), greater than 10000 µg/mL. In addition, the “Film Quality Test, Solvent Anisole” value in data set [2] is listed as “◯”. In addition, the “Film Quality Test, Solvent dioxane” value in data set [2] was “X”. Further, the “Film Quality Test, Solvent Ethyl acetate” value in data set [2] is on record as “◯”. Moreover, the “Film Quality Test, Solvent Toluene” value in data set [2] is “◯”.
Regarding `c1ccc(-c2c3ccccc3c(-c3ccccc3)c3cc(-c4ccc5c(c4)c4ccccc4n5-c4ccccc4)ccc23)cc1` [Sample 1-13, 3-(9,10-diphenyl-2-anthryl)-9-phenyl-9H-carbazole], the solubility at 10 min in data set [1] (setting [3]), in data set [1] (setting [4]), in data set [1] (setting [5]), in data set [1] (setting [7]) and in data set [1] (setting [8]) was greater than 10000 µg/mL throughout. Also, the “Film Quality Test, Solvent Anisole” value in data set [2] is on record as “◯”. Besides, the “Film Quality Test, Solvent dioxane” value in data set [2] is on record as “X”. Besides, the “Film Quality Test, Solvent Ethyl acetate” value in data set [2] was “◯”. Further, the “Film Quality Test, Solvent Toluene” value in data set [2] is listed as “◯”.
In the case of `c1ccc(-c2ccccc2-c2c3ccccc3c(-c3ccccc3-c3ccccc3)c3cc(-n4c5ccccc5c5ccccc54)ccc23)cc1` [Sample 1-14, 9-[9,10-bis(2-biphenyl)-2-anthryl]-9H-carbazole], in data set [2], the “Film Quality Test, Solvent Anisole” value is given as “◯”; the “Film Quality Test, Solvent dioxane” value is “X”; the “Film Quality Test, Solvent Ethyl acetate” value is reported as “◯”; the “Film Quality Test, Solvent Toluene” value is recorded as “◯”.
